We go through 1 compound from article PMC5915154, “Aloe-emodin as drug candidate for cancer therapy” (Oncotarget, 2018).

For one assay, the system named is CCRF-CEM cells. As to the kind of experiment: Annexin V/PI detection of apoptosis and necrosis. The assay is classed as cell-based, human. From the text:
A commercial annexin V/PI detection apoptosis kit was used to detect early apoptosis and necrosis according to the manufacturer’s instructions (Life Technologies, Carlsbad, CA, USA). Annexin V is a calcium-dependent phospholipid-binding protein, which binds to phosphatidylserine (PS). PS is predominantly located at the inner side of the plasma membrane under normal conditions and moves to outer surface of the membrane upon the onset of early apoptosis. This can be detected FITC-labeled annexin V. PI is a marker of late apoptosis and necrosis. We treated aliquots of 1×10^6 CCRF-CEM cells with 0.5-, 1-, 2- and 4-fold IC50 of Aloe-emodin for 48, 72 or 96 h, respectively. After washing the cells with PBS, they were stained with annexin V/FITC at room temperature for 10-15 min. Subsequently, cells were washed again and stained with PI in the dark. Then, the results were analyzed by a BD Accuri™ C6 flow cytometer at excitation wavelength 488 nm and emission wavelength 530 nm to record annexin V/FITC signals. The fluorescence of PI was detected at 488 nm excitation and was measured by a 610/20 nm band pass filter. At least three independent experiments were performed..

Assay [1] relates to mRNA expression (DUSP6, HHEX, MCMDC2, CRCP) in CCRF-CEM cells. As to the kind of experiment: qPCR validation of microarray data. The settings on record: CCRF-CEM treated vs untreated, normalized to GAPDH. It counts as cell-based, human. Here is the method:
Primer sequences of HHEX, MCMDC2 and CRCP were designed using NCBI and GenScript Real Time PCR Primer Design (https://www.genscript.com/ssl-bin/app/primer) websites. DUSP6, HHEX, MCMDC2 and CRCP primers were synthesized by Eurofins MWG Operon (Ebersberg, Germany) and their sequence specificities were checked by NCBI Primer-Blast (http://www.ncbi.nlm.nih.gov/tools/primer-blast). The reaction properties of primers were calculated by Eurofins genomics (https://www.eurofinsgenomics.eu/en/dna-rna-oligonucleotides/oligo-design-more/oligo-property-scan.aspx). The primer sequences were as follows: DUSP6, forward (5′–3′): […], reverse (5′–3′): […] [75]; HHEX, forward: […], reverse: […]; MCMDC2, forward: […], reverse: […]; CRCP, forward: […], reverse: […]. Total RNA was isolated by InviTrap Spin Universal RNA Mini kit (Stratec Molecular) according to the manufacturer’s instruction. One microgram RNA was converted to cDNA using RevertAid H Minus First Strand cDNA Synthesis Kit (Thermo Scientific). The mRNA levels were analyzed by using of 5×Hot Start Tag EvaGreen® qPCR Mix (no ROX) (Axon Labortechnik, Kaiserslautern, Germany) and CFX384™ Real-Time PCR Detection System (Bio-Rad, Munich, Germany). RT-PCR was performed with an initial denaturation at 95°C for 10 second followed by 40 cycles including strand separation at 95°C for 15 s, annealing at 62°C for 30 s and extension at […] for 1 min. The GAPDH, HPRT1 and RLP13 genes were used as housekeeping genes. The expression data were normalized using Bestkeeper software. […] Therefore, GAPDH was used for normalization. Forward and reverse primer sequences of GAPDH were […] for forward and […] for reverse, respectively.
Furthermore, forward and reverse primer sequences of HPRT1 were […] for forward and […] for reverse as well as of RLP13A were TATGCTGCCCCACAAAACC for forward and […] for reverse, respectively. • The quantification method was done as follow: • ΔCt = Ct gene test – Ct endogenous control. • ΔΔCt = ΔCt sample1 – ΔCt calibrator. • RQ = Relative quantification = 2-ΔΔCt.
The RQ is the fold-change compared to the calibrator (untreated sample, time zero, etc.). The calibrator has an RQ value of 1. All samples were compared to the calibrator.

The subject of assay [2] is multidrug-resistant P-glycoprotein-overexpressing CEM/ADR5000 leukemia cells. Put plainly: Resazurin reduction assay, CEM/ADR5000. The assay is classed as cell-based, human. Conditions: Homo sapiens; CEM/ADR5000, resazurin assay, 72 h. From the text: (§1) The cell lines used in the present work, their origins and maintenance conditions were previously reported. In brief, drug-sensitive CCRF-CEM and multidrug resistant P-glycoprotein-over-expressing CEM/ADR5000 leukemia cells, MDA-MB-231-pcDNA3 breast cancer cells and their transfectant subline MDA-MB-231-BCRP clone 23, HCT116 (p53^+/+) colon cancer cells and its knockout clone HCT116 (p53^-/-), U87.MG glioblastoma multiform cells and their transfectant subline U87.MGΔEGFR as well as HEK293 human embryonic kidney cells transfected with or without a cDNA for ABCB5 were used. The human peripheral mononuclear cells (PMNC) were isolated from fresh blood samples of a healthy donor by using Histopaque® (Sigma-Aldrich, Taufkirchen, Germany).
(§2) Resazurin reduction assay was conducted to test the cytotoxicity of the compounds. This assay is based on the reduction of resazurin to resorufin by viable cells. […] Briefly, aliquots of 0.5×10^4 adherent cells which were allowed to attach overnight and 1×10^4 suspension cells per well were seeded in 96-well-plates with or without the addition of varying concentrations of the test substance to get a total volume of 200 μL/well. After 72 h incubation and addition of resazurin (Sigma-Aldrich) for 4 h, staining was measured by an Infinite M2000 ProTM plate reader (Tecan, Germany) using an excitation wavelength of 544 nm and an emission wavelength of 590 nm. Each assay was independently performed for at least three times, with six parallel replicates each. The protocol has been recently reported. Fifty percent inhibition concentrations (IC50) represent the drug concentrations required to inhibit 50% of cell proliferation, which were fitted with nonlinear regression using GraphPad® Prism7.

Assay [3] deals with drug-sensitive CCRF-CEM leukemia cells. As to the kind of experiment: Resazurin reduction assay, CCRF-CEM. It counts as cell-based. Conditions: Homo sapiens, 72 h.
Source text: as §1, §2

In assay [4] the test system is MDA-MB-231-pcDNA breast cancer cells. As to the kind of experiment: Resazurin reduction assay, MDA-MB-231-pcDNA. Conditions: Homo sapiens, 72 h. The assay is classed as cell-based.
Source text: as §1
as §2, with “Each assay was independently performed for at least three times, with six parallel replicates each. The protocol has been recently reported. Fifty percent inhibition concentrations (IC50) represent the drug concentrations required to inhibit 50% of cell proliferation, which were fitted with nonlinear regression using GraphPad® Prism7.” left out

`O=C1c2cccc(O)c2C(=O)c2c(O)cc(CO)cc21` [Aloe-emodin]: the “apoptotic or necrotic cell death” value with CCRF-CEM cells (2- or 4-fold IC50, 96 h) was “early and late apoptosis as well as early and late necrosis”. The “apoptotic or necrotic cell death” value in the assay with CCRF-CEM cells (4-fold IC50, 72 h) was “early and late apoptosis as well as early and late necrosis”. Further, in assay [1], the “qPCR data (FC), CRCP” value is -2.63 FC; the “qPCR data (FC), DUSP6” value is on record as 1.40 FC; the “qPCR data (FC), HHEX” value is reported as 2.23 FC; the “qPCR data (FC), MCMDC2” value is -2.47 FC. Also, the IC50 in assay [2] amounted to 12.8 µM. The compound also had an IC50 in assay [3] of 9.87 µM. It took 22.3 µM to reach half-maximal inhibition in assay [4] (IC50).
